Test results: patent US20260232670A1, “TYRO3 SELECTIVE INHIBITORS AND USES THEREOF” (THE UNIVERSITY OF NORTH CAROLINA AT CHAPEL HILL, priority 2023, published 2026)

Legend:
Type in all cases: biochemical
TYRO3 = biological target: T1, TYRO3 (Homo sapiens, UniProt Q06418); test: Microfluidic capillary electrophoresis (MCE) kinase activity assay, Tyro3
T1 sequence (Q06418 41-890): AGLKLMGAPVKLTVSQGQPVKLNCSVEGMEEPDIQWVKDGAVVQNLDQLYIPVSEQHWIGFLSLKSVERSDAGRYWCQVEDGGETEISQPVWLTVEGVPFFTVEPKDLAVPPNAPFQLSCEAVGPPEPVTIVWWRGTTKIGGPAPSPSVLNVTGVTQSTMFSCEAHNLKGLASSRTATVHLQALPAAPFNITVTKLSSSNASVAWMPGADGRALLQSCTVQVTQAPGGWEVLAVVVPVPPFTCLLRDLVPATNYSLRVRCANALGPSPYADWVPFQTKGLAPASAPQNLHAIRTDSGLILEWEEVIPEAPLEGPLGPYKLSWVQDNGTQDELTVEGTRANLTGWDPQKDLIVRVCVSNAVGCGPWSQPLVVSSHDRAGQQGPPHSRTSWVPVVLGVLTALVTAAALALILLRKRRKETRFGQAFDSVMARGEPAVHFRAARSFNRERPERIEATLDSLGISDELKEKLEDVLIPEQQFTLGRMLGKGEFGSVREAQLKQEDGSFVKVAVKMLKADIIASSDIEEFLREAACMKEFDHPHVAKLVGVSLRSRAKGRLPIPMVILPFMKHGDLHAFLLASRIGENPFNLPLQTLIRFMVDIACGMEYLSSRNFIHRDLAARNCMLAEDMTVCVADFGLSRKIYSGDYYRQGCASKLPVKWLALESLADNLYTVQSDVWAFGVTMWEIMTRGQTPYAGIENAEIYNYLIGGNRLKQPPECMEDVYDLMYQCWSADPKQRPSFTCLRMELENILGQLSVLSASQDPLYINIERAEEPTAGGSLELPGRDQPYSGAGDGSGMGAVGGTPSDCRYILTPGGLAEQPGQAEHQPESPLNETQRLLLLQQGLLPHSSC

MERTK = biological target: T2, MERTK (Homo sapiens, UniProt Q12866); test: Microfluidic capillary electrophoresis (MCE) kinase activity assay, Mer
T2 sequence (Q12866 21-999): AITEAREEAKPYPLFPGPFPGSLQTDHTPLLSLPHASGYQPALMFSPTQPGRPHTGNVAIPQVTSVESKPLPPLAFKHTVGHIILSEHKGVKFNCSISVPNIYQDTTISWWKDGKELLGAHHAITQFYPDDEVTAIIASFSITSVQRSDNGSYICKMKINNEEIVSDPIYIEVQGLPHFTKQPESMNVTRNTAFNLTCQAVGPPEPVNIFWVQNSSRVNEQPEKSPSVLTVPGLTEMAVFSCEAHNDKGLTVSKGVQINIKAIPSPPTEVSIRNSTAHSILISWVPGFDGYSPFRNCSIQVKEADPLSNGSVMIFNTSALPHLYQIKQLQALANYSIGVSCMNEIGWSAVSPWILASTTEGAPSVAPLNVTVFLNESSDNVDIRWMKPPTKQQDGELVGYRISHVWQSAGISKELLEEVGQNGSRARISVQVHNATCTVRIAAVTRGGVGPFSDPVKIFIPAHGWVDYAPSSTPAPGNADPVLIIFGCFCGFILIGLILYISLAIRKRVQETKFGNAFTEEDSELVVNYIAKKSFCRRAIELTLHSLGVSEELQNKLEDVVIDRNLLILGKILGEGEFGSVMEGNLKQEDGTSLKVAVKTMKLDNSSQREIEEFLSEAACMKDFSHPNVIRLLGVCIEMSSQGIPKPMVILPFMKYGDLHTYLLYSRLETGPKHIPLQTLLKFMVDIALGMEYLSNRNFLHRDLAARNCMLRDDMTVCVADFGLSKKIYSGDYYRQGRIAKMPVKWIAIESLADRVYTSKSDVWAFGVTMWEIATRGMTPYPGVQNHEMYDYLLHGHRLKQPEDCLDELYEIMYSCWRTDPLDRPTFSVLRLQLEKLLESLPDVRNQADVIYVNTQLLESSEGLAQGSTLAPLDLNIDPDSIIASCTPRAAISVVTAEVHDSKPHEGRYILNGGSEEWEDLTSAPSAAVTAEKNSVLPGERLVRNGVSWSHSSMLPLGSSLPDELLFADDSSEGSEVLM

AXL = biological target: T3, AXL (Homo sapiens, UniProt P30530); test: Microfluidic capillary electrophoresis (MCE) kinase activity assay, Axl; conditions: Table 2; MCE assay, ATP at Km
T3 sequence (P30530 26-894): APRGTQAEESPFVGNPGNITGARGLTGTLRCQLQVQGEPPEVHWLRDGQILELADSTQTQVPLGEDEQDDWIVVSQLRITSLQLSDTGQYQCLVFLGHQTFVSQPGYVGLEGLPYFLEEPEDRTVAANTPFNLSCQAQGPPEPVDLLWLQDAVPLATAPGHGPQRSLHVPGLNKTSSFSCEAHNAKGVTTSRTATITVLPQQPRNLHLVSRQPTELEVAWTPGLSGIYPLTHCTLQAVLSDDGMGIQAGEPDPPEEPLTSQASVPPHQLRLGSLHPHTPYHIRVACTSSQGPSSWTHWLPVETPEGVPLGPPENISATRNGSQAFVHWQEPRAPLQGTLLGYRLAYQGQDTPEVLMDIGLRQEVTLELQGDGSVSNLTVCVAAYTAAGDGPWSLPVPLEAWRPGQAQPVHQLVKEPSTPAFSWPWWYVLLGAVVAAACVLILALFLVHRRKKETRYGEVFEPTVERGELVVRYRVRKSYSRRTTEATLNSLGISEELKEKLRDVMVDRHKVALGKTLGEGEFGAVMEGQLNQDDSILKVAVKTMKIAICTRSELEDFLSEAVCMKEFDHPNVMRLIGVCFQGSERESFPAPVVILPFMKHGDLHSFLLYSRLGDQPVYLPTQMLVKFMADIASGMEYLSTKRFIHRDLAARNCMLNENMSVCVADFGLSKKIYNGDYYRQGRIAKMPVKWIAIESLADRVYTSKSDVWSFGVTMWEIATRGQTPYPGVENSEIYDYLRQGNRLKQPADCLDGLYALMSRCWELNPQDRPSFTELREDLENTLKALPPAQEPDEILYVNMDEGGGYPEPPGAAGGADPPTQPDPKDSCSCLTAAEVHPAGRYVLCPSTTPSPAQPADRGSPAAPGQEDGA

IC50 (TYRO3; Table 2, MCE assay, ATP at Km) [µM] | IC50 (MERTK; Table 2, MCE assay, ATP at Km) [µM] | IC50 (AXL) [µM] | SMILES | other results
< 0.01 | < 0.01 | 0.01 to 0.1 | CN1CCN(Cc2ccc(-c3cn([C@H]4CC[C@H](O)CC4)c4nc(Nc5cc(F)cc(Cl)c5)ncc34)cc2)CC1 [Compound 7] | 
< 0.01 | 0.01 to 0.1 | 0.01 to 0.1 | CN1CCN(Cc2ccc(-c3cn([C@H]4CC[C@H](O)CC4)c4nc(Nc5cc(Cl)c(F)c(Cl)c5)ncc34)cc2)CC1 [Compound 8] | 
0.01 to 0.1 | 0.1 to 1 | 0.1 to 1 | O[C@H]1CC[C@H](n2cc(-c3ccc(CN4CCC(F)(F)CC4)cc3)c3cnc(Nc4cc(C(F)(F)F)cc(C(F)(F)F)c4)nc32)CC1 [Compound 10] | 
< 0.01 | 0.1 to 1 | 0.1 to 1 | O[C@H]1CC[C@H](n2cc(-c3ccc(CNCCN4CCOCC4)cc3)c3cnc(Nc4cc(C(F)(F)F)cc(C(F)(F)F)c4)nc32)CC1 [Compound 19] | 
< 0.01 | < 0.01 | 0.01 to 0.1 | CN(C)C1CCN(Cc2ccc(-c3cn([C@H]4CC[C@H](O)CC4)c4nc(Nc5cc(F)cc(Cl)c5)ncc34)cc2)CC1 [Compound 22] | 
< 0.01 | 0.01 to 0.1 | 0.1 to 1 | O[C@H]1CC[C@H](n2cc(-c3ccc(CN4CCC(F)(F)CC4)cc3)c3cnc(Nc4cc(F)cc(Cl)c4)nc32)CC1 [Compound 23] | 
< 0.01 | < 0.01 | 0.01 to 0.1 | CN1CCCN(Cc2ccc(-c3cn([C@H]4CC[C@H](O)CC4)c4nc(Nc5cc(F)cc(Cl)c5)ncc34)cc2)CC1 [Compound 24] | 
< 0.01 | 0.1 to 1 | 0.1 to 1 | O[C@H]1CC[C@H](n2cc(-c3ccc(CN4CCSCC4)cc3)c3cnc(Nc4cc(F)cc(Cl)c4)nc32)CC1 [Compound 25] | 
0.01 to 0.1 | 1 to 30 | 1 to 30 | CC(C)(C)OC(=O)N1CCN(Cc2ccc(-c3cn([C@H]4CC[C@H](O)CC4)c4nc(Nc5cc(C(F)(F)F)cc(C(F)(F)F)c5)ncc34)cc2)CC1 [Compound 26] | 
< 0.01 | 0.1 to 1 | 0.1 to 1 | O[C@H]1CC[C@H](n2cc(-c3ccc(CN4CCNCC4)cc3)c3cnc(Nc4cc(C(F)(F)F)cc(C(F)(F)F)c4)nc32)CC1 [Compound 27] | 
 |  |  | CN1CCC(Nc2ccc(-c3cn([C@H]4CC[C@H](O)CC4)c4nc(Nc5cc(F)cc(Cl)c5)ncc34)cc2)CC1 [Compound 56] | IC50 (TYRO3; Table 8): < 0.01 µM; IC50 (MERTK; Table 8): < 0.01 µM
 |  |  | CN1CCN(S(=O)(=O)c2ccc(-c3cn([C@H]4CC[C@H](O)CC4)c4nc(Nc5cc(F)cc(Cl)c5)ncc34)cc2)CC1 [Compound 63] | IC50 (TYRO3; Table 9): < 0.01 µM; IC50 (MERTK; Table 9): < 0.01 µM
< 0.01 | < 0.01 |  | CN1CCN(Cc2ccc(-c3cn([C@H]4CC[C@H](O)CC4)c4nc(Nc5cccc(C(F)(F)F)c5)ncc34)cc2)CC1 [Compound 147] | 
< 0.01 | 0.01 to 0.1 |  | CN1CCN(Cc2ccc(-c3cn([C@H]4CC[C@H](O)CC4)c4nc(Nc5cc(Cl)cc(C(F)(F)F)c5)ncc34)cc2)CC1 [Compound 148] | 
< 0.01 | < 0.01 |  | CN1CCN(Cc2ccc(-c3cn([C@H]4CC[C@H](O)CC4)c4nc(Nc5cc(F)cc(C(F)(F)F)c5)ncc34)cc2)CC1 [Compound 149] | 
< 0.01 | < 0.01 |  | CC1CCN(Cc2ccc(-c3cn([C@H]4CC[C@H](O)CC4)c4nc(Nc5cc(F)cc(Cl)c5)ncc34)cc2)CC1 [Compound 151] | 
 |  |  | CN1CCN(Cc2ccc(-c3cn(C4CCOCC4)c4nc(Nc5cc(F)cc(Cl)c5)ncc34)cc2)CC1 [Compound 160] | IC50 (TYRO3; Table 10): < 0.01 µM; IC50 (MERTK; Table 10): < 0.01 µM
 |  |  | CN1CCN(Cc2ccc(-c3cn([C@H]4CC[C@H](NC(=O)OC(C)(C)C)CC4)c4nc(Nc5cc(C(F)(F)F)cc(C(F)(F)F)c5)ncc34)cc2)CC1 [Compound 161] | IC50 (TYRO3; Table 10): 0.01 to 0.1 µM
 |  |  | CN1CCN(Cc2ccc(-c3cn([C@H]4CC[C@H](NC(=O)OC(C)(C)C)CC4)c4nc(Nc5cc(F)cc(Cl)c5)ncc34)cc2)CC1 [Compound 163] | IC50 (TYRO3; Table 10): 0.01 to 0.1 µM; IC50 (MERTK; Table 10): 0.1 to 1 µM
 |  |  | CN1CCN(Cc2ccc(-c3cn([C@H]4CC[C@H](N)CC4)c4nc(Nc5cc(F)cc(Cl)c5)ncc34)cc2)CC1 [Compound 164] | IC50 (TYRO3; Table 10): < 0.01 µM; IC50 (MERTK; Table 10): < 0.01 µM
 |  |  | CN1CCN(Cc2ccc(-c3cn(C4CC(CO)(CO)C4)c4nc(Nc5cc(C(F)(F)F)cc(C(F)(F)F)c5)ncc34)cc2)CC1 [Compound 165] | IC50 (TYRO3; Table 10): < 0.01 µM; IC50 (MERTK; Table 10): 1 to 30 µM
 |  |  | CN1CCN(Cc2ccc(-c3cc(C4CCC5(CC4)OCCO5)n4nc(Nc5cc(F)cc(Cl)c5)ncc34)cc2)CC1 [Compound 170, N-(3-chloro-5-fluorophenyl)-5-(4-((4-methylpiperazin-1-yl)methyl)phenyl)-7-(1,4-dioxaspiro[4.5]decan-8-yl)pyrrolo[2,1-f][1,2,4]triazin-2-amine] | IC50 (TYRO3; Table 11): < 0.01 µM; IC50 (MERTK; Table 11): 0.01 to 0.1 µM
 |  |  | CN1CCN(Cc2ccc(-c3cc(C4CCC(=O)CC4)n4nc(Nc5cc(F)cc(Cl)c5)ncc34)cc2)CC1 [Compound 171, 4-(2-((3-chloro-5-fluorophenyl)amino)-5-(4-((4-methylpiperazin-1-yl)methyl)phenyl)pyrrolo[2,1-f][1,2,4]triazin-7-yl)cyclohexan-1-one] | IC50 (TYRO3; Table 11): < 0.01 µM; IC50 (MERTK; Table 11): 0.01 to 0.1 µM
 |  |  | CN1CCN(Cc2ccc(-c3cn([C@H]4CC[C@H](O)CC4)c4nc(Nc5cc(F)cc(Cl)c5)ncc34)cn2)CC1 [Compound 172] | IC50 (TYRO3; Table 12): < 0.01 µM; IC50 (MERTK; Table 12): < 0.01 µM
 |  |  | CN1CCN(Cc2ccc(-c3cn([C@H]4CC[C@H](O)CC4)c4nc(Nc5cc(C(F)(F)F)cc(C(F)(F)F)c5)ncc34)cn2)CC1 [Compound 173] | IC50 (TYRO3; Table 12): < 0.01 µM; IC50 (MERTK; Table 12): 0.1 to 1 µM
< 0.01 | < 0.01 |  | CN1CCN(Cc2ccc(-c3cn([C@H]4CC[C@H](O)CC4)c4nc(Nc5ccsc5)ncc34)cc2)CC1 [Compound 174] | 
< 0.01 | < 0.01 |  | CN1CCN(Cc2ccc(-c3cn([C@H]4CC[C@H](O)CC4)c4nc(Nc5cncc(Cl)c5)ncc34)cc2)CC1 [Compound 175] | 
